Reference: a melting point compilation (Tetko et al.; mined from patent text by program, amines drawn as free bases though some values may be those of a salt)

SMILES	melting point
N#Cc1cc([N+](=O)[O-])ccc1Oc1ccc(Cl)c(Cl)c1	154 to 155 °C
CCCC1=C(C#N)C(c2cccc(C#N)c2Br)c2c[nH]nc2N1C (configuration not stated)	218 to 220 °C
COc1ccc(Cn2ccn(C3CCc4ccccc4C3)c2=S)cc1OC (configuration not stated)	129 to 131 °C
Cc1ccc(C(=O)N[C@H]2CC[C@H](O)CC2)c(Nc2ccc3[nH]ncc3c2)n1	> 280 °C
Cc1c(NC(=O)c2ccc(-c3cccc(F)c3)cc2)ccc2cc(CN3CCCC3)cnc12	158 to 159 °C
CON(C(=O)Cc1nc2ccc(Cl)cc2o1)c1ccccc1	139 °C
Sc1ccc(OCc2ccccc2)nn1	155 to 157 °C
Cc1cc(-c2cc(C(F)(F)F)nn2-c2ccc(S(C)(=O)=O)cc2)ccc1-c1cocn1	148 to 150 °C
Cn1cc(C(=O)NCc2ccc(Cl)cc2)c(=O)c2ccoc21	197 to 205 °C
CCCCn1c(CCOC)nc2c(N)nc3ccccc3c21	149 to 151 °C
CN(C)C(=O)Nc1snc(S(C)=O)c1C#N (configuration not stated)	178 to 179 °C
Oc1ccc(C2OCC3(CO2)COC(c2ccc(O)cc2)OC3)cc1 (configuration not stated)	251 to 253 °C
COC(=O)c1cn(-c2ccc(F)cc2)c(C=Cc2cccnc2)cc1=O	201 to 204 °C
NCCCOc1ccc(-c2ncc3c(=O)[nH][nH]c(=O)c3c2O)cc1	> 300 °C
CC(C)(C)OC(=O)Cn1cccc(NC(=O)OCc2ccccc2)c1=O	88 to 90 °C
O=c1c2c(Cl)cc(Cl)cc2n(Cc2ccccc2)c(=O)n1Cc1ccc(Br)cc1	163 to 168 °C
CCCN1CC=C(c2cccc3[nH]ccc23)CC1	105 °C
CSC1=C([N+](=O)[O-])CCCN1	230 to 232 °C
O=C(NNc1ccc(NC(=S)NCc2ccccc2)cc1)c1ccc(F)cc1	186 to 188 °C

SMILES	melting point
CC(=O)C(C#N)c1cc(Cl)cc(Cl)c1Cl (configuration not stated)	134 to 135 °C
CS(=O)(=O)Nc1cc(OCCC(=O)O)ccc1Oc1ccccc1	145 to 149 °C
CCCCOc1c(CNC(=O)OC(C)(C)C)n(CC2CC2)c(=O)c2ccc(C(=O)O)cc12	197 to 198 °C
CN1OCC(=O)N(C(c2ccccc2)c2ccccc2)C1=S	152 to 154 °C
Nc1cccc2cncc(Br)c12	155 °C
CC12CC=C3C(CCC4(CCSc5ncccn5)CC(O)CCC34C)C1CCC2O (configuration not stated)	156 °C
O=c1oc2ccccc2c(O)c1C1CC(c2ccc(OCc3ccc(-c4ccc(-c5ccccc5)cc4)cc3)cc2)Cc2ccccc21 (configuration not stated)	245 to 248 °C
O=Cc1cccc(-c2nc3sccn3c2-c2ccnc(N[C@@H]3CCCN(S(=O)(=O)c4ccc(Cl)cc4)C3)n2)c1	124 to 126 °C
CCS(=O)(=O)c1ccc(-c2cc(-c3nc(N)sc3-c3cccc(C)n3)ccn2)cc1	219 °C
CC1Cc2cc(NC(=O)OCc3ccccc3)ccc2N1C(=O)OCc1ccccc1 (configuration not stated)	107 to 111 °C
CCNc1nc(Nc2ccccc2)ncc1C(C)=CC(=O)OCC	148 to 150 °C
CC(=O)Nc1nc2c(Oc3cc(-c4ccc(C(F)(F)F)nc4NC4CCN(C(C)C)C4)ncn3)cccc2s1 (configuration not stated)	140 to 141 °C
CCc1cn(C2OC(CNC(=O)C(C)Oc3c(Cl)cc(Cl)c(OC)c3Cl)C(OC(=O)C(NC(=O)OC(C)(C)C)C(C)C)C2F)c(=O)[nH]c1=O (configuration not stated)	147 to 149 °C
CSC(=Nc1ccccc1C(=O)NC(C)C)NC(=O)c1ccccc1	117 to 120 °C
CCOC(=O)c1cccnc1NC(=O)Cc1cccc(Oc2ccccc2)c1	90 to 91 °C
COc1cc(Nc2nccc(-c3ccc(Cl)nc3)n2)cc(OC)c1OC	191 to 192 °C
CCOc1ccc(C2C(=O)Oc3ccc(C)cc32)cc1 (configuration not stated)	82 to 86 °C
COc1cc(C(=O)N2CCC(CCN3CCC(C(=O)c4nc5ccccc5n4Cc4ccc(F)cc4)CC3)(c3ccc4c(c3)OCO4)C2)cc(OC)c1OC (configuration not stated)	112 to 114 °C
